Data from US8471005B2 (Cephalon, Inc., priority 2008, dated 2013).
Where two headings read alike, the source gives them in different places.

Assays:
ALK = target: T1, ALK (Homo sapiens, UniProt Q9UM73); assay: ALK Kinase Assay (ELISA/TRF, PLC-γ substrate); format: biochemical; conditions: read-out: ALK Potency
T1 construct: host or cells: baculovirus expression system
In short: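 PLC-γ coat 10 μg/mL in TBS; ALK 30 ng/ml added to start; 37° C, 15 min; Eu-N1 PT66 antibody detection (TRF). IC50: % inhibition vs log10 [cpd], variable-slope sigmoidal fit.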

JAK2 = target: T2, JAK2 (Homo sapiens, UniProt O60674); assay: Recombinant Human JAK2 Kinase Assay (TRF); format: biochemical; conditions: read-out: JAK2 Potency
T2 construct: host or cells: baculovirus expression system
In short: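 Baculovirus-expressed JAK2 (15 ng/ml) phosphorylated a biotinylated 15-mer peptide captured on Neutravidin, in 20 mM HEPES pH 7.2, 0.2 μM ATP, 1 mM MnCl2, 0.1% BSA, 2.5% DMSO final, 20 min at room temperature. Phosphoproduct detected by time-resolved fluorescence with Eu-N1-labelled PY100 antibody.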

[1] = ALK kinase inhibition, 1 μM ATP
[2] = JAK2 kinase inhibition, 0.2 μM ATP

T2 sequence (O60674 whole entry): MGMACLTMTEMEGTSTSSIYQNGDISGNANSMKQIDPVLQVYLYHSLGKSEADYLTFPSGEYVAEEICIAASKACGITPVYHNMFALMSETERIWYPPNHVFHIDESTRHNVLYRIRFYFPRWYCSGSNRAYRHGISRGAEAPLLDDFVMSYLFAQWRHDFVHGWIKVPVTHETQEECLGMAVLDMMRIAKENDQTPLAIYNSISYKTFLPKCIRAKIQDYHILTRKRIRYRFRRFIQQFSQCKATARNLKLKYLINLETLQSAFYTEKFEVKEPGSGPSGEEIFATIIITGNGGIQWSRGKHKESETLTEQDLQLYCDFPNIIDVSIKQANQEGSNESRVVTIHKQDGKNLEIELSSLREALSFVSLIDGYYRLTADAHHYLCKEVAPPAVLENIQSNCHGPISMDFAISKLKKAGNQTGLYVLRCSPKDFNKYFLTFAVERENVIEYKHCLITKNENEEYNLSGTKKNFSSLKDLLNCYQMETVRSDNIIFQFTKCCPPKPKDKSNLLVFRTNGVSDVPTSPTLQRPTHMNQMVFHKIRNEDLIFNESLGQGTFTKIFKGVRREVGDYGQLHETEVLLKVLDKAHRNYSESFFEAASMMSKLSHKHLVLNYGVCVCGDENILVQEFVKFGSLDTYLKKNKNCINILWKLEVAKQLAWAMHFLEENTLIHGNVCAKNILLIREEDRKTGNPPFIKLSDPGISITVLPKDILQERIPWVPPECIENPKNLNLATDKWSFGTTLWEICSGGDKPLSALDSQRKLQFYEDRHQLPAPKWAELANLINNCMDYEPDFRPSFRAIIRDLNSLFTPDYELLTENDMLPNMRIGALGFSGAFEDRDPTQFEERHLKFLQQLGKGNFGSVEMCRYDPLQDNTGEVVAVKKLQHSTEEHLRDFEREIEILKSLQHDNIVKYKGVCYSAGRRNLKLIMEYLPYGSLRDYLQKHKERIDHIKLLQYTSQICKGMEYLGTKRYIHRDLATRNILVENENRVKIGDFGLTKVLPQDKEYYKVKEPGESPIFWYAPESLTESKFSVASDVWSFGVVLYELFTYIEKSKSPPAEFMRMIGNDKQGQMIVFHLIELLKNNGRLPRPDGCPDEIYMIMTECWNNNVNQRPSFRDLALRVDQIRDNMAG
T1 sequence (Q9UM73 19-1620): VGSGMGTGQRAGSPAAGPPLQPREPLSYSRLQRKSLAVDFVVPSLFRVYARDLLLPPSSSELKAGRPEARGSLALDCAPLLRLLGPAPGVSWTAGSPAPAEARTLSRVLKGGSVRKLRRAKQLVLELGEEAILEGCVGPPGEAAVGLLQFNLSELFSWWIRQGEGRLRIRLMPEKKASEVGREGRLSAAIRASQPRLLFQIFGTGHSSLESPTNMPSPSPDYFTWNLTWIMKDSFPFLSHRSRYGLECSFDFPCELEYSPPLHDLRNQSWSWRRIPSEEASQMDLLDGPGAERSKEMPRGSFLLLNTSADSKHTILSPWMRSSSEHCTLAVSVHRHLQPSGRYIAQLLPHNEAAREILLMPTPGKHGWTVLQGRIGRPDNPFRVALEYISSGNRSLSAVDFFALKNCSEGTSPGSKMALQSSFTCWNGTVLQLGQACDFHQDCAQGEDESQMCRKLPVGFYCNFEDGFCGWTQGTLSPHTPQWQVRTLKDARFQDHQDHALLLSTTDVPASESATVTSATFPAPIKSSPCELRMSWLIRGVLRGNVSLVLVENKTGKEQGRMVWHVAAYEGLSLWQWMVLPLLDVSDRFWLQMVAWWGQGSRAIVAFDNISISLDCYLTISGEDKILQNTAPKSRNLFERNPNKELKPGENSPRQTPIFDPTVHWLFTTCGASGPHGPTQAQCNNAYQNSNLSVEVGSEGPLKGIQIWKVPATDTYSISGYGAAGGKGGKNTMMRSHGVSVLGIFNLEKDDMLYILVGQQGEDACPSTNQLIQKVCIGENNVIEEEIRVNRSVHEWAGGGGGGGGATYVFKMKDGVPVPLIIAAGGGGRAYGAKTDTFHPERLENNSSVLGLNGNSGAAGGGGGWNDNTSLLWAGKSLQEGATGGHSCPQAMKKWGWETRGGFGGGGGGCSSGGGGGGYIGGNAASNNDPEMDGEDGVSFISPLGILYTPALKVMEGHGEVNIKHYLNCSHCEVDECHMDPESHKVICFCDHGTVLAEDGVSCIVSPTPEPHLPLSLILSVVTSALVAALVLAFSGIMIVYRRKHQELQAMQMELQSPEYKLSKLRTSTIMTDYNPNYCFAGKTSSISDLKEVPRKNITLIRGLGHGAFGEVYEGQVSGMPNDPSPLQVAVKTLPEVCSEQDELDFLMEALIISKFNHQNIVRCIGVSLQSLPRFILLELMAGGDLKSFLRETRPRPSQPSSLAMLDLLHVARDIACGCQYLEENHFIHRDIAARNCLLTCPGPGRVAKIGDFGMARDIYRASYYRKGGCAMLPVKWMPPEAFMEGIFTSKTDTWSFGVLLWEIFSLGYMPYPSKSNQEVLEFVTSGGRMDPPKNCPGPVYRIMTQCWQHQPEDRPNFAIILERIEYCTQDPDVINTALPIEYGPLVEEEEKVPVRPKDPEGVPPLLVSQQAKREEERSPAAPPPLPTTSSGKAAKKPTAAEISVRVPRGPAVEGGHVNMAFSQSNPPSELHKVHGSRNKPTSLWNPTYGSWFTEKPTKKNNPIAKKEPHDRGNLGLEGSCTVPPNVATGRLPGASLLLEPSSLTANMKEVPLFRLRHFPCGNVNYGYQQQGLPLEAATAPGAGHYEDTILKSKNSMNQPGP

| Molecule | IC50 (ALK; ALK Kinase Inhibition) | IC50 (JAK2; JAK2 Kinase Inhibition) | IC50 (ALK; [1]) | IC50 (JAK2; [2]) |
| --- | --- | --- | --- | --- |
| CC(C)C(=O)Nc1cccc(Nc2ncc3ccc(-c4cccc(S(=O)(=O)NC(C)(C)C)c4)n3n2)c1 [Example 1385, N-{3-[7-(3-tert-Butylsulfamoyl-phenyl)-pyrrolo[2,1-f][1,2,4]triazin-2-ylamino]-phenyl}-isobutyramide] | 1 to 10 µM | < 0.1 µM |  |  |
| COc1ccccc1-c1ccn2nc(NCc3cccc(N(C)C)c3)ncc12 [Example 721, (3-Dimethylamino-benzyl)-[5-(2-methoxy-phenyl)-pyrrolo[2,1-f][1,2,4]triazin-2-yl]-amine] |  |  | > 10 µM | 1 to 10 µM |
| CN1CCN(c2ccc(Nc3ncc4ccc(-c5cccc(CNCCS(C)(=O)=O)c5)n4n3)cc2)CC1 [Example 1162, (7-{3-[(2-Methanesulfonyl-ethylamino)-methyl]-phenyl}-pyrrolo[2,1-f][1,2,4]triazin-2-yl)-[4-(4-methyl-piperazin-1-yl)-phenyl]-amine] |  |  | 0.1 to 1 µM | < 0.1 µM |
| COc1ccccc1-c1ccc2cnc(Nc3ccc(N4CCN(CC(C)(C)O)CC4)cc3)nn12 [Example 221, 1-(4-{4-[7-(2-Methoxy-phenyl)-pyrrolo[2,1-f][1,2,4]triazin-2-ylamino]-phenyl}-piperazin-1-yl)-2-methyl-propan-2-ol] | < 0.1 µM | < 0.1 µM |  |  |
| COc1cc(N(C)C(=O)CN2CCN(C)CC2)ccc1Nc1ncc2ccc(-c3ccccc3N(C)S(C)(=O)=O)n2n1 [Example 471, N-(4-{7-[2-(Methanesulfonyl-methyl-amino)-phenyl]-pyrrolo[2,1-f][1,2,4]triazin-2-ylamino}-3-methoxy-phenyl)-N-methyl-2-(4-methyl-piperazin-1-yl)-acetamide] |  |  | 0.1 to 1 µM | 1 to 10 µM |
| Cc1nc(-c2ccc3cnc(Nc4ccc(N5CCN(C)CC5)cc4)nn23)cn1C [Example 1042, [7-(1,2-Dimethyl-1H-imidazol-4-yl)-pyrrolo[2,1-f][1,2,4]triazin-2-yl]-[4-(4-methyl-piperazin-1-yl)-phenyl]-amine] |  |  | 0.1 to 1 µM | < 0.1 µM |
| CN(C)Cc1ccc(-c2ccc3cnc(Nc4ccc(C5CCN(CC(N)=O)CC5)cc4)nn23)cc1 [Example 1433, 2-(4-{4-[7-(4-Dimethylaminomethyl-phenyl)-pyrrolo[2,1-f][1,2,4]triazin-2-ylamino]-phenyl}-piperidin-1-yl)-acetamide] | 1 to 10 µM | 1 to 10 µM |  |  |
| CN1CCN(c2ccc(Nc3ncc4c(-c5ccccc5)ccn4n3)cc2)CC1 [Example 41, [4-(4-Methyl-piperazin-1-yl)-phenyl]-(5-phenyl-pyrrolo[2,1-f][1,2,4]triazin-2-yl)-amine] | > 10 µM | < 0.1 µM |  |  |
| COc1cc(N2CCN(C[C@H](C)O)CC2)ccc1Nc1ncc2ccc(-c3c(OC)cccc3OC)n2n1 [Example 543, (S)-1-(4-{4-[7-(2,6-Dimethoxy-phenyl)-pyrrolo[2,1-f][1,2,4]triazin-2-ylamino]-3-methoxy-phenyl}-piperazin-1-yl)-propan-2-ol] |  |  | < 0.1 µM | 1 to 10 µM |
| CC(C)S(=O)(=O)c1ccc(-c2ccc3cnc(Nc4ccc(N5CCOCC5)cc4)nn23)cc1 [Example 199, (4-Morpholin-4-yl-phenyl)-{7-[4-(propane-2-sulfonyl)-phenyl]-pyrrolo[2,1-f][1,2,4]triazin-2-yl}-amine] | 1 to 10 µM | < 0.1 µM |  |  |

Second part, the molecule after the results:

| IC50 (ALK; ALK Kinase Inhibition) | IC50 (JAK2; JAK2 Kinase Inhibition) | IC50 (ALK; [1]) | IC50 (JAK2; [2]) | Molecule |
| --- | --- | --- | --- | --- |
|  |  | 0.1 to 1 µM | < 0.1 µM | COc1cc(Nc2ncc3ccc(-c4cccc(S(C)(=O)=O)c4)n3n2)ccc1C1CCN(CC(N)=O)CC1 [Example 923, 2-(4-{4-[7-(3-Methanesulfonyl-phenyl)-pyrrolo[2,1-f][1,2,4]triazin-2-ylamino]-2-methoxy-phenyl}-piperidin-1-yl)-acetamide] |
| 1 to 10 µM | < 0.1 µM |  |  | COc1ccc(-c2ccc3cnc(Nc4ccc5nc(CN6CCOCC6)[nH]c5c4)nn23)cn1 [Example 1513, [7-(6-Methoxy-pyridin-3-yl)-pyrrolo[2,1-f][1,2,4]triazin-2-yl]-(2-morpholin-4-ylmethyl-3H-benzimidazol-5-yl)-amine] |
|  |  | < 0.1 µM | < 0.1 µM | COCCN1CCc2ccc(Nc3ncc4ccc(-c5cccc(CCC#N)c5)n4n3)cc2CC1 [Example 1152, 3-(3-{2-[3-(2-Methoxy-ethyl)-2,3,4,5-tetrahydro-1H-benzo[d]azepin-7-ylamino]-pyrrolo[2,1-f][1,2,4]triazin-7-yl}-phenyl)-propionitrile] |
|  |  | 0.1 to 1 µM | 0.1 to 1 µM | COc1cc(C(=O)N2CCN(C)CC2)ccc1Nc1ncc2ccc(-c3ccccc3OC)n2n1 [Example 489, {3-Methoxy-4-[7-(2-methoxy-phenyl)-pyrrolo[2,1-f][1,2,4]triazin-2-ylamino]-phenyl}-(4-methyl-piperazin-1-yl)-methanone] |
|  |  | 0.1 to 1 µM | < 0.1 µM | CS(=O)(=O)c1cccc(-c2ccc3cnc(Nc4ccc(C5CCNCC5)nc4)nn23)c1 [Example 1025, (1′,2′,3′,4′,5′,6′-Hexahydro-[2,4′]bipyridinyl-5-yl)-[7-(3-methanesulfonyl-phenyl)-pyrrolo[2,1-f][1,2,4]triazin-2-yl]-amine] |
|  |  | < 0.1 µM | < 0.1 µM | CN1CCN(c2ccc(Nc3ncc4ccc(-c5cnc6ccccc6c5)n4n3)cc2)CC1 [Example 1037, [4-(4-Methyl-piperazin-1-yl)-phenyl]-(7-quinolin-3-yl-pyrrolo[2,1-f][1,2,4]triazin-2-yl)-amine] |
|  |  | 0.1 to 1 µM | < 0.1 µM | CN(c1cccc(-c2ccc3cnc(Nc4ccc(C5CCN(CC(N)=O)CC5)cc4)nn23)c1)S(C)(=O)=O [Example 959, 2-[4-(4-{7-[3-(Methanesulfonyl-methyl-amino)-phenyl]-pyrrolo[2,1-f][1,2,4]triazin-2-ylamino}-phenyl)-piperidin-1-yl]-acetamide] |
|  |  | 0.1 to 1 µM | < 0.1 µM | CC(C)Oc1cccc(-c2ccc3cnc(Nc4ccc(C5CCN(CC(N)=O)CC5)cc4)nn23)c1 [Example 588, 2-(4-{4-[7-(3-Isopropoxy-phenyl)-pyrrolo[2,1-f][1,2,4]triazin-2-ylamino]-phenyl}-piperidin-1-yl)-acetamide] |
|  |  | < 0.1 µM | 0.1 to 1 µM | CNC(=O)CN1CCC(c2ccc(Nc3ncc4ccc(-c5ccccc5OC)n4n3)c(OC)c2)CC1 [Example 867, 2-(4-{3-Methoxy-4-[7-(2-methoxy-phenyl)-pyrrolo[2,1-f][1,2,4]triazin-2-ylamino]-phenyl}-piperidin-1-yl)-N-methyl-acetamide] |
|  |  | < 0.1 µM | 0.1 to 1 µM | COc1cc(C2=CCN(CC(N)=O)CC2)ccc1Nc1ncc2ccc(-c3ccccc3OC)n2n1 [Example 1274, 2-(4-{3-Methoxy-4-[7-(2-methoxy-phenyl)-pyrrolo[2,1-f][1,2,4]triazin-2-ylamino]-phenyl}-3,6-dihydro-2H-pyridin-1-yl)-acetamide] |
|  |  | < 0.1 µM | < 0.1 µM | COc1cc(C2CCN(C)CC2OC)ccc1Nc1ncc2ccc(-c3ccccc3OC)n2n1 (racemic) [Example 859, (±)-[2-Methoxy-4-(3-methoxy-1-methyl-piperidin-4-yl)-phenyl]-[7-(2-methoxy-phenyl)-pyrrolo[2,1-f][1,2,4]triazin-2-yl]-amine] |
|  |  | 0.1 to 1 µM | < 0.1 µM | N-{2-[2-(3,3-Dimethyl-2-oxo-2,3-dihydro-1H-indol-6-ylmethyl)-pyrrolo[2,1-f][1,2,4]triazin-7-yl]-phenyl}-N-methyl-methanesulfonamide [Example 661] |
